Assay results taken from patent publication US7592347B2, “Piperazine derivates and their use for the treatment of neurological and psychiatric diseases” (Glaxo Group Limited, priority 2003, dated 2009).
Counter-ions that a name gives are not always drawn.

Target: T1, histamine H3 receptor (Homo sapiens, UniProt Q9Y5N1)
T1 construct: expressed in transfected cells; host or cells: CHO K1 cells carrying pSwitch, transfected with pGeneH3 and induced with mifepristone; clone 3H3; membranes
Test: Histamine H3 functional antagonist assay ([35S]GTPγS SPA, membranes of CHO K1 cells expressing human H3)
Assay type: biochemical
Details: functional antagonism of histamine (0.3 μM) stimulated [35S]GTPγS binding, membranes of CHO K1 cells with human histamine H3
Method: A membrane preparation containing histamine H3 receptors may be prepared in accordance with the following procedures:
Ligated DNA was transformed into competent DH5α E. coli host bacterial cells and plated onto Luria Broth (LB) agar containing Zeocin™ (an antibiotic which allows the selection of cells expressing the sh ble gene which is present on pGene and pSwitch) at 50 μg ml^−1. Colonies containing the re-ligated plasmid were identified by restriction analysis. DNA for transfection into mammalian cells was prepared from 250 ml cultures of the host bacterium containing the pGeneH3 plasmid and isolated using a DNA preparation kit (Qiagen Midi-Prep) as per manufacturers guidelines (Qiagen).
CHO K1 cells previously transfected with the pSwitch regulatory plasmid (InVitrogen) were seeded at 2×10e6 cells per T75 flask in Complete Medium, containing Hams F12 (GIBCOBRL, Life Technologies) medium supplemented with 10% v/v dialysed foetal bovine serum, L-glutamine, and hygromycin (100 μg ml^−1), 24 hours prior to use. Plasmid DNA was transfected into the cells using Lipofectamine plus according to the manufacturers guidelines (InVitrogen). 48 hours post transfection cells were placed into complete medium supplemented with 500 μg ml^−1 Zeocin™.
10-14 days post selection 10 nM Mifepristone (InVitrogen), was added to the culture medium to induce the expression of the receptor. […] Approximately 1×10e7 cells were examined for receptor expression by staining with a rabbit polyclonal antibody, 4a, raised against the N-terminal domain of the histamine H3 receptor, incubated on ice for 60 minutes, followed by two washes in sorting medium. […] Following two further washes with Sorting Medium, cells were filtered through a 50 μm Filcon™ (BD Biosciences) and then analysed on a FACS Vantage SE Flow Cytometer fitted with an Automatic Cell Deposition Unit. […] Positively stained cells were sorted as single cells into 96-well plates, containing Complete Medium containing 500 μg ml^−1 Zeocin™ and allowed to expand before reanalysis for receptor expression via antibody and ligand binding studies.
All steps of the protocol are carried out at 4° C. and with pre-cooled reagents. The cell pellet is resuspended in 10 volumes of buffer A2 containing 50 mM N-2-hydroxyethylpiperazine-N′-2-ethanesulfonic acid (HEPES)(pH 7.40) supplemented with 10e−4M leupeptin (acetyl-leucyl-leucyl-arginal; Sigma L2884), 25 μg/ml bacitracin (Sigma B0125), 1 mM ethylenediamine tetra-acetic acid (EDTA), 1 mM phenylmethylsulfonyl fluoride (PMSF) and 2×10e−6M pepstain A (Sigma). The cells are then homogenised by 2×15 second bursts in a 1 litre glass Waring blender, followed by centrifugation at 500 g for 20 minutes. The supernatant is then spun at 48,000 g.for 30 minutes. The pellet is resuspended in 4 volumes of buffer A2 by vortexing for 5 seconds, followed by homogenisation in a Dounce homogeniser (10-15 strokes). At this point the preparation is aliquoted into polypropylene tubes and stored at −70° C. […]
The plate is then incubated on a shaker at room temperature for 30 minutes followed by centrifugation for 5 minutes at 1500 rpm. The plate is read between 3 and 6 hours after completion of centrifuge run in a Wallac Microbeta counter on a 1 minute normalised tritium count protocol. Data is analysed using a 4-parameter logistic equation. Basal activity used as minimum i.e. histamine not added to well.

T1 sequence (Q9Y5N1 whole entry): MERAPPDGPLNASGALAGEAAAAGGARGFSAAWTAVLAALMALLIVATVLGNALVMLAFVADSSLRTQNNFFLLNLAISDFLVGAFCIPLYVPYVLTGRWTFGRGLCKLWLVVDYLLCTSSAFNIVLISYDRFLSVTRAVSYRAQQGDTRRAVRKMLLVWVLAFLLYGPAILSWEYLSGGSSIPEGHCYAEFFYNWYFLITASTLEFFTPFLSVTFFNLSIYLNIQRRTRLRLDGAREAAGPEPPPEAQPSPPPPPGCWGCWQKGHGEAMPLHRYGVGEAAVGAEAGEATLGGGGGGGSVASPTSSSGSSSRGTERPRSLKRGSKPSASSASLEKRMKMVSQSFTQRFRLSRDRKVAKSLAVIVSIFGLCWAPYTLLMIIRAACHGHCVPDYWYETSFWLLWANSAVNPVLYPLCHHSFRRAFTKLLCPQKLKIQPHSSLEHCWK

Row | Kb | SMILES
1 | < 1 nM | CC(=O)c1ccc(N2CCC(C(=O)N3CCCN(C(C)C)CC3)CC2)cc1 [Example E150, 1-Isopropyl-4-[1-(4-acetylphenyl)-piperidine-4-carbonyl]-[1,4]-diazepane]
2 | < 3.16 nM | Cc1noc(-c2ccc(N3CCC(C(=O)N4CCCN(C(C)C)CC4)CC3)cc2)n1 [Example E168, 1-Isopropyl-4-{1-[4-(3-methyl-1,2,4-oxadiazol-5-yl)phenyl]-piperidine-4-carbonyl}-[1,4]-diazepane]
3 | < 3.16 nM | CC(C)N1CCCN(C(=O)C2CCN(c3ccc(C#N)cc3Cl)CC2)CC1 [Example E64, 1-Isopropyl-4-[1-(4-cyano-2-chlorophenyl)-piperidine-4-carbonyl]-[1,4]-diazepane]
4 | < 3.16 nM | Cc1ncc(-c2ccc(N3CCC(C(=O)N4CCCN(C(C)C)CC4)CC3)cc2)o1 [Example E154, 1-Isopropyl-4-{1-[4-(2-methyl-1,3-oxazol-5-yl)phenyl]-piperidine4-carbonyl}-[1,4]-diazepane]
5 | < 3.16 nM | COC(=O)c1cnc(N2CCC(C(=O)N3CCN(C(C)C)CC3)CC2)cc1C(F)(F)F [Example E4, 1-Isopropyl-4-[1-(5-methoxycarbonyl-4-trifluoromethylpyridin-2-yl)-piperidine-4-carbonyl]-piperazine]
6 | < 3.16 nM | CC(C)N1CCN(C(=O)C2CCN(c3ccc(-c4nnc(-c5ccccc5)o4)cc3)CC2)CC1 [Example E90, 1-Isopropyl-4-{1-[4-(5-phenyl-1,3,4-oxadiazol-2-yl)phenyl]-piperidine-4-carbonyl} piperazine]
7 | < 3.16 nM | N#Cc1ccc(N2CCC(C(=O)N3CCN(C4CCC4)CC3)CC2)cc1F [Example E10, 1-Cyclobutyl-4-[1-(4-cyano-3-fluorophenyl)-piperidine-4-carbonyl]-piperazine]
8 | < 3.16 nM | CC(C)N1CCCN(C(=O)C2CCN(c3ccc(C#N)c(F)c3)CC2)CC1 [Example E41, 1-Isopropyl-4-[1-(4-cyano-3-fluoro-phenyl)-piperidine4-carbonyl]-[1,4]-diazepane]
9 | < 1 nM | CC(C)N1CCCN(C(=O)C2CCN(c3ccc(C#N)cc3)CC2)CC1 [Example E38, 1-Isopropyl-4-[1-(4-cyanophenyl)-piperidine4-carbonyl]-[1,4]-diazepane]
10 | < 3.16 nM | N#Cc1ccc(N2CCC(C(=O)N3CCCN(C4CCC4)CC3)CC2)cn1 [Example E179, 1-Cyclobutyl-4-[1-(6-cyano-pyridin-3-yl)-piperidine-4-carbonyl]-[1,4]-diazepane]
11 | < 3.16 nM | CC(C)N1CCCN(C(=O)C2CCN(c3c(F)cc(C#N)cc3F)CC2)CC1 [Example E42, 1-Isopropyl-4-[1-(4-cyano-2,6-difluoro-phenyl)-piperidine-4-carbonyl]-[1,4]-diazepane]
12 | < 3.16 nM | C[C@@H]1CN(C(=O)C2CCN(c3ccc(C#N)cc3)CC2)C[C@H](C)N1C1CCC1 [Example E33, (2R,6S)-1-Cyclobutyl-4-[1-(4-cyanophenyl)-piperidine-4-carbonyl]-2,6-dimethylpiperazine hydrochloride]
13 | < 3.16 nM | CC(C)N1CCN(C(=O)C2CCN(c3cnc(C(F)(F)F)cn3)CC2)CC1 [Example E102, 1-Isopropyl-4-[1-(5-trifluoromethyl-pyrazin-2-yl)-piperidine4-carbonyl]-piperazine]
14 | < 0.316 nM | CC(C)N1CCN(C(=O)C2CCN(c3ccc(C(F)(F)F)nc3)CC2)CC1 [Example E96, 1-Isopropyl-4-[1-(6-trifluoromethylpyridin-3-yl)-piperidine-4-carbonyl]-piperazine]
15 | < 1 nM | CC(C)N1CCN(C(=O)C2CCN(c3ccc(C(F)(F)F)nc3)CC2)C[C@@H]1C [Example E79, (S)-1-Isopropyl-4-[1-(6-trifluoromethylpyridin-3-yl)-piperidine-4-carbonyl]-2-methyl piperazine]
16 | < 3.16 nM | CC(C)N1CCCN(C(=O)C2CCN(c3ccc(Oc4ccccc4)cc3)CC2)CC1 [Example E61, 1-Isopropyl-4-[1-(4-phenoxyphenyl)-piperidine-4-carbonyl]-[1,4]-diazepane]
17 | < 3.16 nM | CC[C@H](C)N1CCN(C(=O)C2CCN(c3ccc(C#N)cc3)CC2)CC1 [Example E104]
18 | < 3.16 nM | N#Cc1ccc(N2CCC(C(=O)N3CCN(C4CCC4)CC3)CC2)c2ccccc12 [Example E13, 1-Cyclobutyl-4-[1-(4-cyano-naphthalen-1-yl)-piperidine-4-carbonyl]-piperazine]
19 | < 3.16 nM | CC(C)N1CCN(C(=O)C2CCN(c3ccc(C(=O)C4CC4)cc3)CC2)CC1 [Example E105, 1-Isopropyl-4-[1-(4-cyclopropylcarbonylphenyl)-piperidine4-carbonyl]-piperazine]
20 | < 1 nM | CC(C)N1CCN(C(=O)C2CCN(c3ccc(C#N)cc3)CC2)CC1 [Example E2, 1-Isopropyl-4-[1-(4-cyanophenyl)-piperidine-4-carbonyl]-piperazine hydrochloride]
21 | < 3.16 nM | CC(C)N1CCN(C(=O)C2CCN(c3ccc(C#N)nc3)CC2)CC1 [Example E129, 1-Isopropyl-4-[1-(6-cyano-pyridin-3-yl)-piperidine-4-carbonyl]-piperazine]
22 | < 3.16 nM | N#Cc1ccc(N2CCC(C(=O)N3CCN(C4CCCC4)CC3)CC2)cc1 [Example E31, 1-Cyclopentyl-4-[1-(4cyano-phenyl)-piperidine-4-carbonyl]-piperazine hydrochloride]
23 | < 3.16 nM | CC(C)N1CCCN(C(=O)C2CCN(c3ccc(OC(F)(F)F)cc3)CC2)CC1 [Example E56, 1-Isopropyl-4-[1-(4-trifluoromethoxyphenyl)-piperidine4-carbonyl]-[1,4]-diazepane]
24 | < 3.16 nM | N#Cc1ccc(N2CCC(C(=O)N3CCCN(C4CCC4)CC3)CC2)cc1C(F)(F)F [Example E68, 1-Cyclobutyl-4-[1-(4-cyano-3-trifluoromethylphenyl)-piperidine4-carbonyl]-[1,4]-diazepane]
25 | < 3.16 nM | CC(C)N1CCN(C(=O)C2CCN(c3ccc(C#N)cc3)CC2)C[C@@H]1C [Example E70, (S)-1-Isopropyl-4-[1-(4-cyanophenyl)-piperidine-4-carbonyl]-2-methylpiperazine]
26 | < 3.16 nM | CC(C)N1CCCN(C(=O)C2CCN(c3ccc(C#N)c(Cl)c3)CC2)CC1 [Example E40, 1-Isopropyl-4-[1-(4-cyano-3-chlorophenyl)-piperidine-4-carbonyl]-[1,4]-diazepane]
27 | < 3.16 nM | N#Cc1cc(N2CCC(C(=O)N3CCCN(C4CCC4)CC3)CC2)ccn1 [Example E137, 1-Cyclobutyl-4-[1-(2-cyanopyridin-4-yl)-piperidine-4-carbonyl]-[1,4]-diazepane]
28 | < 1 nM | N#Cc1ccc(N2CCC(C(=O)N3CCCN(C4CCC4)CC3)CC2)cc1 [Example E36, 1-Cyclobutyl-4-[1-(4-cyanophenyl)-piperidine4-carbonyl]-[1,4]-diazepane]
29 | < 3.16 nM | N#Cc1ccc(N2CCC(C(=O)N3CCN(C4CCC4)CC3)CC2)nc1 [Example E14, 1-Cyclobutyl-4-[1-(5-cyanopyridin-2-yl)-piperidine-4-carbonyl]-piperazine]

Row | SMILES | Kb
30 | CC(C)N1CCCN(C(=O)C2CCN(c3ccc(C#N)c4ccccc34)CC2)CC1 [Example E46, 1-Isopropyl-4-[1-(4-cyano-naphthalen-1-yl)-piperidine-4-carbonyl]-[1,4]-diazepane] | < 3.16 nM
